Data: patent US20240209011A1, “HETEROAROMATIC PHOSPHONIUM SALTS FOR TREATING CANCER” (FLORATEK PHARMA S.A., priority 2021, published 2024)

Assays:
Type in all cases: cell-based
breast PDX = test: Activity against breast PDX; details: growth of breast PDX; summary of Table 6
Description: (§1) PDX-derived cell cultures were obtained from tumors explanted from mice and isolated by mechanical and enzymatic dissociation. […] Cells were harvested and seeded in 96-wells plates at a density of 1.25 to 5×10^3 cells/well for cytotoxicity assays. Cells were incubated 48 h at 37° C. prior to addition of test molecules and vehicle (DMSO, 0.1%) at desired final concentrations. Cell viability was assessed before drugs' addition (To) and 5 days after test molecules addition by measuring ATP cell content using CellTiter-Glo® Luminescent Cell Viability Assay (Promega) according to the manufacturer's instructions. Luciferase activity was measured on a luminometer (PerkinElmer® EnVision™). Each concentration of compounds was tested in triplicate.
(§2) Viability was calculated as a percentage of ATP value compared to vehicle treated controls.
(§3) For PDX primary cell cultures, the tumour tissue was washed with PBS containing antibiotic-antimycotic and non-tumour tissue and necrotic tumour tissues were separated. The tumour tissue was transferred to a new dish and cut into 1-2 mm^3 fragments, resuspended in RPMI-1640 medium and centrifuged at 1,200 rpm for 6 min at room temperature. The pelleted material was resuspended with 15 mL of Tumour Cell Digestion Solution and incubated at 37° C. for 1 hour with agitation. Following further addition of media, centrifugation and passage through a […] cell strainer, the homogenous cell mixture was layered onto 15 mL of Ficoll-Paque PLUS in a 50 mL conical tube and centrifuged for 15 min at 1,600 rpm. The interface cells were collected, washed with media, separated by centrifugation at 1,200 rpm. The cell pellet was resuspended in serum free media supplemented with growth factors. 10,000 cells/wells were plated in a 96 well plate and incubated at 37° C., 5% CO2, 95% air and 100% relative humidity overnight. The cytotoxicity assay was conducted as above. IC50 values represent absolute IC50.

head and neck PDX = test: Activity against head and neck PDX; details: head and neck PDX growth; Table 11
Description: as §1, §2, §3

KM-12 = test: Cell viability assay (CellTiter-Blue/CellTiter-Glow); details: Homo sapiens, KM12; colon carcinoma cell line KM-12; absolute IC50
Description: (§4) Antitumor activity of the compounds and doxorubicin as a positive control was assessed by using the CellTiter-Blue Cell Viability Assay (Promega, #G8082) or CellTiter-Glow® Luminescent Cell Viability assay (Promega #G7572) according to the manufacturer's instructions. The compounds were tested at 5 or 6 concentrations in half-log increments (highest concentration 30 μM or 100 μM) in duplicate or triplicate well conditions.
(§5) Tumor cells were grown at 37° C. in a humidified atmosphere with 5% CO2 in RPMI 1640 or DMEM medium, supplemented with 10% (v/v) fetal calf serum and 50 μg/ml gentamicin for up to 20 passages, and were passaged once or twice weekly. Cells were harvested using TrypLE or PBS buffer containing 1 mM EDTA, and the percentage of viable cells is determined using a CASY Model TI cell counter (OMNI Life Science). Cells were harvested from exponential phase cultures, counted and plated in 96 well flat-bottom microtiter plates at a cell density depending on the cell line's growth rate (4,000-20,000 cells/well depending on the cell line's growth rate, up to 60,000 for hematological cancer cell lines) in RPMI 1640 or DMEM medium supplemented with 10% (v/v) fetal calf serum and 50 μg/ml gentamicin (140 μl/well). Cultures were incubated at 37° C. and 5% CO2 in a humidified atmosphere. After 24 h, 10 μl of test compounds or control medium were added, and left on the cells for another 72 h. Compounds were serially diluted in DMSO, transferred in cell culture medium, and added to the assay plates. The DMSO concentration was kept constant at <0.3% v/v across the assay plate. Viability of cells was quantified by the CellTiter-Blue® cell viability assay (Promega G8081) or CellTiter-Glow® Luminescent Cell Viability assay (Promega #G7572). Fluorescence (FU) was measured by using the EnSpire® multimode plate reader (Perkin Elmer) (excitation X=570 nm, emission λ=600 nm). Luminescence was measured with a microplate luminometer (Promega or PerkinElmer).
(§6) Sigmoidal concentration-response curves were fitted to the data points (test-versus-control, T/C values) obtained for each tumor model using 4 parameter non-linear curve fit (Charles River DRS Datawarehouse Software) or with GraphPad prism 5.02 software. IC50 values are reported as absolute IC50 values, being the concentration of test compound at the intersection of the concentration-response curves with T/C=50% Cell lines tested are presented in Table 1.

H1299 = test: as above; details: Homo sapiens, NCI-H1299; lung carcinoma cell line H1299; absolute IC50; 72 h
Description: as §4, §5, §6

A549 = test: as above; details: Homo sapiens; lung carcinoma cell line A549; absolute IC50; 72 h
Description: as §4, §5, §6

SMILES	IC50 (breast PDX) [µM]	IC50 (head and neck PDX) [µM]	IC50 (KM-12) [µM]	IC50 (H1299) [µM]	IC50 (A549) [µM]
CCNC(=O)Oc1ccc2c(=O)cc(-c3ccc(CCCC[P+](c4ccccc4)(c4ccccc4)c4ccccc4)cc3)oc2c1O.[Br-] [SND126A, 4-[4-[7-(Ethylcarbamoyloxy)-8-hydroxy-4-oxo-chromen-2-yl]phenyl]butyltriphenylphosphonium bromide]	< 20	< 10	3.2	–	–
CCNC(=O)Oc1ccc2c(=O)cc(-c3ccc(CCCC[P+](c4ccccc4)(c4ccccc4)c4ccccc4)cc3)oc2c1OC(=O)NCC.[Br-] [SND124, 4-[4-[7,8-Bis(ethylcarbamoyloxy)-4-oxo-chromen-2-yl]phenyl]-butyltriphenylphosphonium bromide]	< 20	< 10	2.7	4.27	11.2
CC(C)NC(=O)Oc1ccc2c(=O)cc(-c3ccc(CCCC[P+](c4ccccc4)(c4ccccc4)c4ccccc4)cc3)oc2c1O [SND127, 4-[4-[7-(Isopropylcarbamoyloxy)-8-hydroxy-4-oxo-chromen-2-yl]phenyl]butyltriphenylphosphonium bromide]	–	–	–	12.7	5.3
O=c1cc(-c2ccc(CCCC[P+](c3ccccc3)(c3ccccc3)c3ccccc3)cc2)oc2c(O)c(O)ccc12 [SND118, 4-[4-(7,8-dihydroxy-4-oxo-chromen-2-yl)phenyl]butyltriphenyl-phosphonium bromide]	–	–	–	1.28	12.5
O=c1cc(-c2ccc(CCCC[P+](c3ccccc3)(c3ccccc3)c3ccccc3)cc2)oc2c3c(ccc12)OCO3.[Br-] [SND123, 4-[4-(6-oxo-[1,3]dioxolo[4,5-h]chromen-8-yl)phenyl]butyl-triphenylphosphonium bromide]	< 20	< 10	3	–	8.08
COc1c(O)ccc2c(=O)cc(-c3ccc(CCCC[P+](c4ccccc4)(c4ccccc4)c4ccccc4)cc3)oc12.[Br-] [SND140, (4-(4-(7-hydroxy-8-methoxy-4-oxo-4H-chromen-2-yl)phenyl)butyl)triphenylphosphonium bromide]	< 20	< 10	5.6	–	–
